# Results: US9781938B2, “Method for eliciting plant immune responses by seed priming of heat-treated Bacillus culture solution” (KOREA RESEARCH INSTITUTE OF BIOSCIENCE AND BIOTECHNOLOGY, priority 2012, dated 2017)
# Tests used:
# Format in all cases: in vivo
# [1] = system: cucumber; assay: Establishment of seed priming conditions using BTH: stem weight to see growth inhibition
# Method: (§1) Regarding the priming of a cucumber seed, to establish conditions for seed treatment at which induced systemic resistance against is induced in a plant without inhibiting plant growth, a cucumber seed was treated with BTH (benzothiadiazole), i.e., a potent substance for eliciting resistance, and it was cultivated in a rectangular culture solution dish (125×125 mm) and a pot for determination. The cucumber seed (Bakbong Dadagi, manufactured by Nongwoo Bio, Korea) was subjected to surface sterilization for 5 minutes using 5% NaOCl and, after rinsing 5 times with sterilized water, died on a filter paper. The sterilized seed was soaked for 0, 6, 12, or 18 hours in BTH solution each at 0.1 μM, 10 μM, or 1 mM. 0 Hour means that the seed was dried immediately after soaking. The soaked seed was dried for 12 hours on a culture dish overlaid with a sterilized filter paper. The seed after priming was sown in a pot filled with soil for horticulture (Punong Co., Ltd., Korea) and also in a rectangular culture dish containing distilled water-agar medium (Water agar; WA, plant agar (8 g/L)). […] Seven days later, any symptom of disease was determined, and the degree of symptom was measured with scale of from 1 to 5. […] Stem weight was measured simultaneously with determination of the degree of symptom to see if there is any growth inhibition.
# [2] = system: PR2 gene; assay: qRT-PCR expression of plant disease resistance-related gene PR2 in cucumber leaf after pathogen inoculation; conditions: after 24 hours
# Method: (§2) In order to measure an expression amount of a plant disease resistance-related gene, pathogen was inoculated to a cucumber, and sampling was made 0, 3 or 24 hours later. Total RNA was isolated from the sampled cucumber leaf by using RNeasy Plus Mini Kit (50). cDNA was synthesized from 2 μg of the RNA by using an oligo-dT primer and MMLV-RT (Moloney murine leukemia virus reverse transcriptase, Enzynomics, KOREA). cDNA was then used for qRT-PCR (quantitative Reverse Transcriptase Polymerase Chain Reaction) based on Chromo4 Real Time PCR system (BIO-RAD) by using each primer for the genes of LOX, PR2 and ETR that are known to be related to resistance to diseases. LOX primer is as follows; forward direction: 5′-[…]-3′ (SEQ ID NO: 1) and reverse direction: 5′-[…]-3′ (SEQ ID NO: 2), PR2 primer is as follows; forward direction: 5′-[…]-3′ (SEQ ID NO: 3) and reverse direction: 5′-[…]-3′ (SEQ ID NO: 4), and ETR primer is as follows; forward direction: 5′-[…]-3′ (SEQ ID NO: 5) and reverse direction: 5′-GCCAAAGACCACTGCCACA-3′ (SEQ ID NO: 6).
# [3] = system: Psuedomonas syringae pv. lachrymans; assay: Establishment of seed priming conditions using BTH: induced systemic resistance in cucumber (culture dish and pot), degree of symptom; conditions: cucumber seed soaked in 1 mM BTH for 12 hours and 18 hours; in vitro and in planta
# Method: as §1
# [4] = system: LOX gene; assay: qRT-PCR expression of plant disease resistance-related gene LOX in cucumber leaf after pathogen inoculation; conditions: BTH treatment group; time not stated
# Method: as §2
smiles,measurement,setting,value
"CSC(=O)c1cccc2nnsc12 [BTH, benzo(1,2,3)-thiadiazole-7-carbothioic acid S-methyl ester]",growth inhibition (stem weight),[1]; seed soaked in 1 mM BTH for 12 hours,no growth inhibition
same,growth inhibition (stem weight),"[1]; seed treated with 1 mM BTH for 18 hours, compared to sterilized water control",growth inhibition is shown with a statistic significance
same,PR2 expression level,[2],1.7
same,PR2 expression level relative to water (0.4),[2]; vs negative control water,4.3 times
same,eliciting induced systemic resistance,[3],most effective
same,expression level of LOX gene versus negative control,[4],close to that of a negative control
